Laboratory results taken from PubChem BioAssay (NCI).
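The compound was tested at five concentrations on cells cultured in 96-well plates, with a 48-hour exposure period. The concentration for 50% growth inhibition is given as GI50. TGI: concentration producing complete growth inhibition.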

Key:
Test in all cases: NCI anticancer screen, dose series, 48 h
NCI-H23 lung = tested on: NCI-H23 lung
BT-549 breast = tested on: BT-549 breast
TK-10 renal = tested on: TK-10 renal
SK-MEL-28 melanoma = tested on: SK-MEL-28 melanoma
SF-268 CNS = tested on: SF-268 CNS
MOLT-4 leukemia = tested on: MOLT-4 leukemia
NCI-H460 lung = tested on: NCI-H460 lung
MDA-MB-231 breast = tested on: MDA-MB-231 breast
SN12C renal = tested on: SN12C renal
HCT-15 colon = tested on: HCT-15 colon
HCT-116 colon = tested on: HCT-116 colon
K-562 leukemia = tested on: K-562 leukemia
A498 renal = tested on: A498 renal
SF-539 CNS = tested on: SF-539 CNS
NCI-H226 lung = tested on: NCI-H226 lung
KM12 colon = tested on: KM12 colon
SK-MEL-2 melanoma = tested on: SK-MEL-2 melanoma
CAKI-1 renal = tested on: CAKI-1 renal
ACHN renal = tested on: ACHN renal
T-47D breast = tested on: T-47D breast
SNB-75 CNS = tested on: SNB-75 CNS
CCRF-CEM leukemia = tested on: CCRF-CEM leukemia
NCI-H522 lung = tested on: NCI-H522 lung
MDA-MB-435 = tested on: MDA-MB-435
HCC-2998 colon = tested on: HCC-2998 colon
PC-3 prostate = tested on: PC-3 prostate
OVCAR-5 ovarian = tested on: OVCAR-5 ovarian
786-0 renal = tested on: 786-0 renal
HOP-92 NSCLC = tested on: HOP-92 NSCLC
HL-60(TB) leukemia = tested on: HL-60(TB) leukemia
SNB-19 CNS = tested on: SNB-19 CNS
OVCAR-4 ovarian = tested on: OVCAR-4 ovarian
COLO 205 colon = tested on: COLO 205 colon
EKVX NSCLC = tested on: EKVX NSCLC
NCI/ADR-RES ovarian = tested on: NCI/ADR-RES ovarian
SR leukemia = tested on: SR leukemia
DU-145 prostate = tested on: DU-145 prostate
U251 CNS = tested on: U251 CNS
IGROV1 ovarian = tested on: IGROV1 ovarian
OVCAR-8 ovarian = tested on: OVCAR-8 ovarian
MCF7 breast = tested on: MCF7 breast
UACC-62 melanoma = tested on: UACC-62 melanoma
A549 NSCLC = tested on: A549 NSCLC
HOP-62 NSCLC = tested on: HOP-62 NSCLC
M14 melanoma = tested on: M14 melanoma
LOX IMVI melanoma = tested on: LOX IMVI melanoma
SF-295 CNS = tested on: SF-295 CNS
UO-31 renal = tested on: UO-31 renal
MALME-3M melanoma = tested on: MALME-3M melanoma
SW-620 colon = tested on: SW-620 colon
UACC-257 melanoma = tested on: UACC-257 melanoma
OVCAR-3 ovarian = tested on: OVCAR-3 ovarian
HS 578T breast = tested on: HS 578T breast
SK-MEL-5 melanoma = tested on: SK-MEL-5 melanoma
HT29 colon = tested on: HT29 colon
SK-OV-3 ovarian = tested on: SK-OV-3 ovarian
RPMI-8226 leukemia = tested on: RPMI-8226 leukemia

## COc1ccc(P2(=S)OCCOP(=S)(c3ccc(OC)cc3)S2)cc1 (stereo unspecified)
NCI-H23 lung
  TGI: > 100 µM
BT-549 breast
  TGI: > 79.9 µM
TK-10 renal
  TGI: > 100 µM
SK-MEL-28 melanoma
  TGI: > 100 µM
SF-268 CNS
  TGI: > 100 µM
MOLT-4 leukemia
  TGI: > 39.5 µM
NCI-H460 lung
  TGI: > 32.2 µM
MDA-MB-231 breast
  TGI: > 100 µM
SN12C renal
  TGI: 33.9 µM
HCT-15 colon
  TGI: > 100 µM
HCT-116 colon
  TGI: > 100 µM
K-562 leukemia
  TGI: > 100 µM
A498 renal
  TGI: 7.05 µM
SF-539 CNS
  TGI: 6.7 µM
NCI-H226 lung
  TGI: > 100 µM
KM12 colon
  TGI: > 100 µM
SK-MEL-2 melanoma
  TGI: > 100 µM
CAKI-1 renal
  TGI: > 100 µM
ACHN renal
  TGI: > 100 µM
T-47D breast
  TGI: > 100 µM
SNB-75 CNS
  TGI: > 100 µM
CCRF-CEM leukemia
  TGI: 25.1 µM
NCI-H522 lung
  TGI: 6.11 µM
MDA-MB-435
  TGI: 40.7 µM
HCC-2998 colon
  TGI: 7.5 µM
PC-3 prostate
  TGI: 5.48 µM
OVCAR-5 ovarian
  TGI: > 100 µM
786-0 renal
  TGI: > 42 µM
HOP-92 NSCLC
  TGI: > 100 µM
HL-60(TB) leukemia
  TGI: > 23.3 µM
SNB-19 CNS
  TGI: > 100 µM
OVCAR-4 ovarian
  TGI: > 100 µM
COLO 205 colon
  TGI: 55.8 µM
EKVX NSCLC
  TGI: > 100 µM
NCI/ADR-RES ovarian
  TGI: > 100 µM
SR leukemia
  TGI: > 100 µM
DU-145 prostate
  TGI: > 100 µM
U251 CNS
  TGI: > 100 µM
IGROV1 ovarian
  TGI: > 100 µM
OVCAR-8 ovarian
  TGI: > 61.6 µM
MCF7 breast
  TGI: 19.4 µM
UACC-62 melanoma
  TGI: > 100 µM
A549 NSCLC
  TGI: > 100 µM
HOP-62 NSCLC
  TGI: > 100 µM
M14 melanoma
  TGI: > 100 µM
LOX IMVI melanoma
  TGI: 42.6 µM
SF-295 CNS
  TGI: > 27.6 µM
UO-31 renal
  TGI: > 50.7 µM
MALME-3M melanoma
  TGI: > 100 µM
SW-620 colon
  TGI: > 100 µM
UACC-257 melanoma
  TGI: > 79.8 µM
OVCAR-3 ovarian
  TGI: 6.11 µM
HS 578T breast
  TGI: > 100 µM
SK-MEL-5 melanoma
  TGI: > 41.9 µM

## CCCCN1C=CCN(CCCC)C1
NCI-H23 lung
  GI50: 63.8 µM
  TGI: > 100 µM
BT-549 breast
  GI50: > 100 µM
  TGI: > 100 µM
TK-10 renal
  GI50: > 100 µM
  TGI: > 100 µM
SK-MEL-28 melanoma
  GI50: 86.9 µM
  TGI: > 100 µM
SF-268 CNS
  GI50: 53 µM
  TGI: > 100 µM
MOLT-4 leukemia
  GI50: 60.7 µM
  TGI: > 100 µM
NCI-H460 lung
  GI50: 47.5 µM
  TGI: > 100 µM
MDA-MB-231 breast
  GI50: > 100 µM
  TGI: > 100 µM
SN12C renal
  GI50: 71.7 µM
  TGI: > 100 µM
HCT-15 colon
  GI50: > 100 µM
  TGI: > 100 µM
HCT-116 colon
  GI50: 39 µM
  TGI: > 100 µM
K-562 leukemia
  GI50: 32 µM
  TGI: > 100 µM
A498 renal
  GI50: > 100 µM
  TGI: > 100 µM
SF-539 CNS
  GI50: > 100 µM
  TGI: > 100 µM
NCI-H226 lung
  GI50: > 100 µM
  TGI: > 100 µM
KM12 colon
  GI50: 35.8 µM
  TGI: > 100 µM
SK-MEL-2 melanoma
  GI50: 46.3 µM
  TGI: > 100 µM
CAKI-1 renal
  GI50: > 100 µM
  TGI: > 100 µM
ACHN renal
  GI50: 89.7 µM
  TGI: > 100 µM
T-47D breast
  GI50: 27.3 µM
  TGI: > 100 µM
SNB-75 CNS
  GI50: > 100 µM
  TGI: > 100 µM
CCRF-CEM leukemia
  GI50: > 100 µM
  TGI: > 100 µM
NCI-H522 lung
  GI50: 52.5 µM
  TGI: > 100 µM
MDA-MB-435
  GI50: 33.8 µM
  TGI: > 100 µM
HCC-2998 colon
  GI50: 34 µM
  TGI: > 100 µM
PC-3 prostate
  GI50: 37.7 µM
  TGI: > 100 µM
OVCAR-5 ovarian
  GI50: > 100 µM
  TGI: > 100 µM
786-0 renal
  GI50: > 100 µM
  TGI: > 100 µM
HL-60(TB) leukemia
  GI50: 21.2 µM
  TGI: 75.4 µM
SNB-19 CNS
  GI50: 46.4 µM
  TGI: > 100 µM
OVCAR-4 ovarian
  GI50: 58.8 µM
  TGI: > 100 µM
COLO 205 colon
  GI50: 28.9 µM
  TGI: > 100 µM
HT29 colon
  GI50: 61.4 µM
  TGI: > 100 µM
EKVX NSCLC
  GI50: 18.5 µM
  TGI: > 100 µM
NCI/ADR-RES ovarian
  GI50: > 100 µM
  TGI: > 100 µM
SR leukemia
  GI50: > 100 µM
  TGI: > 100 µM
DU-145 prostate
  GI50: > 100 µM
  TGI: > 100 µM
U251 CNS
  GI50: 32.2 µM
  TGI: > 100 µM
IGROV1 ovarian
  GI50: 66.4 µM
  TGI: > 100 µM
OVCAR-8 ovarian
  GI50: 61.7 µM
  TGI: > 100 µM
MCF7 breast
  GI50: 57 µM
  TGI: > 100 µM
SK-OV-3 ovarian
  GI50: > 100 µM
  TGI: > 100 µM
UACC-62 melanoma
  GI50: 48.1 µM
  TGI: > 100 µM
A549 NSCLC
  GI50: > 100 µM
  TGI: > 100 µM
HOP-62 NSCLC
  GI50: > 100 µM
  TGI: > 100 µM
M14 melanoma
  GI50: 85.1 µM
  TGI: > 100 µM
LOX IMVI melanoma
  GI50: 68.5 µM
  TGI: > 100 µM
SF-295 CNS
  GI50: 49.8 µM
  TGI: > 100 µM
UO-31 renal
  GI50: > 100 µM
  TGI: > 100 µM
MALME-3M melanoma
  GI50: 21.2 µM
  TGI: 57.3 µM
SW-620 colon
  GI50: 70.1 µM
  TGI: > 100 µM
RPMI-8226 leukemia
  GI50: 23.6 µM
  TGI: 93.6 µM
UACC-257 melanoma
  GI50: 22.8 µM
  TGI: 80.7 µM
OVCAR-3 ovarian
  GI50: 23.8 µM
  TGI: 57.2 µM
HS 578T breast
  GI50: 63.4 µM
  TGI: > 100 µM
SK-MEL-5 melanoma
  GI50: 30.1 µM
  TGI: > 100 µM
